{"source": "patent US7176352B1", "about": "“Transgenic Lemnaceae” (Yeda Research and Development Company Ltd., priority 1997, dated 2007)", "key": {"[1]": {"test_system": "Spirodela punctata plants", "experiment": "GUS expression of transformed plants grown on kanamycin or BASTA supplemented SP medium", "format": "in vivo", "conditions": "supplement 2 μg/ml in SP medium, 2 to 5 weeks", "experimental": "The method involved wounding plants, co-cultivating them with 5×10^8 bacteria ml^−1 (A. tumefaciens strain EHA105 harboring Ti plasmid pME504) for 30 min. and vacuum infiltration (30 mbar, for 5–10 min). Transformed Spirodela punctata plants were grown in SP medium (Table 2) supplemented with 2 μg/ml kanamycin for 2 to 5 weeks. Six green plants resistant to kanamycin, and a sampling of bleached ones, were assayed for GUS expression."}, "[2]": {"test_system": "Calli of Spirodela punctata var. Helgm", "experiment": "Regeneration of plants from Spirodela calli", "format": "in vivo", "conditions": "B-5 medium, 1% sucrose, scored after 2 weeks; for Regenerating calli No.: 30 calli", "experimental": "Spirodela calli were maintained on B-5 medium (Table 6 below) supplemented with 1.0% sucrose, 3 mg/l 2IP and 10 mg/l 2,4-D. For regeneration, calli were transferred to B-5 medium supplemented with 1,0% sucrose and 2 mg/l 2IP. Fully regenerated S. punctata plants were efficiently obtained within 1–2 weeks. Spirodela calli and the regenerated plants, were grown at 26° C. under continuous fluorescent light (30 μE m^−2s^−1).\nCalli of Spirodela punctata var. Helgm, maintained for 7 to 16 weeks on B-5 medium supplemented with 1% sucrose, […] 2IP and 10 mg/l 2,4-D, were transferred to B-5 medium supplemented with 1% sucrose and different concentrations of 2IP. Regenerated plants were visually scored after 2 weeks."}}, "data": [{"smiles": "NC[C@H]1O[C@H](O[C@H]2[C@H](O)[C@@H](O[C@H]3O[C@H](CO)[C@@H](O)[C@H](N)[C@H]3O)[C@H](N)C[C@@H]2N)[C@H](O)[C@@H](O)[C@@H]1O", "note": "[Kanamycin]", "values": [{"measurement": "GUS expression (% fronds) Bleached plants", "setting": "[1]; bleached plants", "result": 0, "unit": "% fronds"}, {"measurement": "GUS expression (% fronds) Green plants", "setting": "[1]; green resistant plants", "result": 83, "unit": "% fronds"}]}, {"smiles": "CC(C)=CCNc1ncnc2nc[nH]c12", "note": "[2 IP]", "values": [{"measurement": "Regenerating calli (%)", "setting": "[2]; 2 IP 2 mg/l", "result": 73, "unit": "%"}, {"measurement": "Regenerating calli No.", "setting": "[2]; 2 IP 2 mg/l", "result": 22}, {"measurement": "Regenerating calli (%)", "setting": "[2]; 2 IP 10 mg/l", "result": 0, "unit": "%"}, {"measurement": "Regenerating calli No.", "setting": "[2]; 2 IP 10 mg/l", "result": 0}]}]}
